Format in all cases: cell-based
Test [1] deals with CXCR4. Kind of test: Chemotaxis assay, human monocytes toward CXCL12 (CXCR4-mediated). The conditions noted are these: mean±SE, read-out: IC50 for inhibition of CXCR4-mediated chemotaxis. On the procedure: (§1) Cell migration was measured employing the Neuroprobe (Gaithersburg, MD, USA) ChemoTx® Disposable Chemotaxis System. A 96-well Boyden-chamber (30 μL/well, 8 μm pores, 1×10^5 pores/cm^2 pore density) was selected for all chemotaxis experiments. Bottom wells of the Boyden-chamber were loaded with 30 μL of test substances at various concentrations. Top wells of the membrane were loaded with 25 μL of THP-1 cells, THP-1_ADRA1B^KO, wild type THP-1 cells after clonal expansion (=control for THP-1_ADRA1B^KO) or freshly isolated monocytes (200 cells/μL). THP-1 cells were suspended in depleted RPMI1640 (0.5% HyClone™ fetal bovine serum, Sigma); Freshly isolated monocytes were suspended in RPMI1640 (0.5% human platelet poor plasma, Sigma). After 3 hours, transmigrated cells were counted utilizing the Cytation 1 plate reader (BioTek) by direct imaging in high contrast bright field (4×) and post-imaging particle analyses with Gen5 (v3.05) Imaging & Microscopy Software (BioTek). The chemotactic index (CI) was calculated as the ratio of cells that transmigrated in the presence versus the absence of the test solutions.

Test [2] addresses CCR2 (Homo sapiens, UniProt P41597). The test can be described thus: CCR2 internalization in THP-1 cells (flow cytometry). Conditions: 100 nM CCL2 plus 1 μM PE, 0-45 min at 37° C.; FIG. 7A/B. Details: host or cells: THP-1. On the procedure:
To examine receptor internalization in THP-1 cells, cells were incubated with 100 nM CCL2 or with 100 nM CCL2 plus 1 μM PE for 0-45 min at 37° C. Cells were then cooled on ice and washed with 50 mM glycine buffer, pH 2.7, 150 mM NaCl, followed by washing with ice-cold PBS. Cell surface CCR2 was probed with anti-CCR2 and corresponding secondary Alexa 488-conjugated antibodies. Receptor cell surface expression levels are examined by flow cytometry and expressed as the median fluorescence intensity (MFI) in percent of the MFI measured at 0 min (=100%).
In general terms: In flow cytometry, cells or beads pass a laser one at a time.

Test [3] concerns CCR8. Kind of test: Chemotaxis assay, human monocytes toward CCL1 (CCR8-mediated). On the procedure: as §1
Test [4] deals with CCR2:α1b-AR heteromers (Homo sapiens, UniProt P35368+P41597). The test can be described thus: BRET assay for β-arrestin recruitment, HEK293T co-expressing CCR2-Rluc, β-arrestin-YFP and α1b-AR. Details: expressed in transfected cells. Conditions: CCL2 plus 10 μM ligand; FIG. 5D. On the procedure: β-arrestin recruitment was measured by BRET, as described (Armando, 2014; Berchiche, 2011). In brief, HEK293T cells were plated in a 6-well plate and transfected with 0.1 μg of CCR2-RluII and 1.9 μg β-arrestin-YFP with 0.1 μg pcDNA3.1 or α1b-AR. One day after transfection, cells were re-plated into 96-well poly-L lysine precoated plates. After overnight incubation, cells were replaced with 0.1% glucose/PBS. Coelenterazine H in a final concentration of 5 μM was added to cells and incubated at room temperature for 3 min. […] The BRET changes were calculated by subtracting the BRET signal of untreated cells.
Background: In BRET a luciferase serves as donor, and the signal depends on an acceptor being close.

SMILES strings stand for the structures.

This note sets out measurements from patent US20250213647A1, “CHEMOKINE RECEPTORS AND ALPHA1 ADRENERGIC RECEPTORS/VASOPRESSIN RECEPTORS 1A HETEROMERS AS DRUG TARGETS FOR DISEASE” (UNIVERSITY OF SOUTH FLORIDA, priority 2022, published 2025).

Chain of CCR2 (P41597 whole entry): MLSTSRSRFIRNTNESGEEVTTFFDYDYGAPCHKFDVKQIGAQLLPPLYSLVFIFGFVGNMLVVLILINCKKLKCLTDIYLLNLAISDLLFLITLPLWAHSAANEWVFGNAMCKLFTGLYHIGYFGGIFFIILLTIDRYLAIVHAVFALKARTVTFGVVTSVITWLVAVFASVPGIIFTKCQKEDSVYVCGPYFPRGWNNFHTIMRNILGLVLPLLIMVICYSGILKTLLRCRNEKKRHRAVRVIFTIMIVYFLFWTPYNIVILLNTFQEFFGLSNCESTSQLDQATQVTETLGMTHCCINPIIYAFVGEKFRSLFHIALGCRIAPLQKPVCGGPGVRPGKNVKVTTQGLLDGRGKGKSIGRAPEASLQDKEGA
Chain of CCR2:α1b-AR heteromers (P41597 whole entry): as above
Chain of CCR2:α1b-AR heteromers (P35368 whole entry): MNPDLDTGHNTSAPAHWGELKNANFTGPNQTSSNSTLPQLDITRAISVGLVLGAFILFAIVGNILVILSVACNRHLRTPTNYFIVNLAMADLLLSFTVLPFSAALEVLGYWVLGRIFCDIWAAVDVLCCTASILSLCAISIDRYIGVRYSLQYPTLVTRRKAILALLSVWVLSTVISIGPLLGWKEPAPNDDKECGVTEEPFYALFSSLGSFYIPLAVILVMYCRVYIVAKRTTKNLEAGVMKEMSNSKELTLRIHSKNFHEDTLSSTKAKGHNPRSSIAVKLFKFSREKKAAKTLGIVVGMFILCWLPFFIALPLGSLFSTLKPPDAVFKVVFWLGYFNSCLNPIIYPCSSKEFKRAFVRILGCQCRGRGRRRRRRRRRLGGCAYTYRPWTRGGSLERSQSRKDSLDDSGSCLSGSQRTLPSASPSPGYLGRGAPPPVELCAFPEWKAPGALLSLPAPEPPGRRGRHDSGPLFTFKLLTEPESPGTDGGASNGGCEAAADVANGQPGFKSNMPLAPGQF

For orientation: IC50 means the concentration at which inhibition is half-maximal. Turning to `CNC[C@H](O)c1cccc(O)c1` [phenylephrine], the IC50 in test [1] was determined as 6 ± 3 nM. Also, the “CCR2 cell surface expression, CCL2 plus ligand vs CCL2 alone” value in test [2] is given as “significantly reduced CCR2 expression”. Besides, the CCL1-induced chemotaxis result in test [3] was “not affected”.

Take `Cc1ccc(N(CC2=NCCN2)c2cccc(O)c2)cc1` [phentolamine]: the “Top plateau, β-arrestin recruitment BRET in the presence of the ligand” value in test [4] stood at 0.061±0.002.
